# Source: US20080317769A1, “Vaccine Composition Comprising Alpha-Galactosylceramide as an Adjuvant For Intranasal Administration” (priority 2005, published 2008)
# Entries after “also recorded” stand apart in the source; their conditions may differ.
# Tests used:
# [1] = test system: OT1 cells (OVA specific CD8+ T cells); test: CD25 surface expression of adoptively transferred CFSE-labeled OT1 cells in CLN (FACS); assay type: in vivo, mouse; details: 100 μg OVA + 2.0 μg αGalCer intranasal vs OVA alone; 48 hours later
# Method: To investigate the effect of αGalCer on the activation of T cells, the surface expression of CD25 in CFSE-labeled OT1 cells (OVA specific CD8+ T cells), which were adoptively transferred into syngenic mice, was measured. OT1 cells were separated from OT1 mouse by using CD8α (Ly-2) magnetic bead (Mitenyl Biotech), which were labeled with 10 μM of CFSE at 37° C. for 15 minutes and then transferred intravenously into a syngenic mouse. One day after the adoptive transfer, the intranasal administration of 100 μg of OVA alone or together with 2.0 μg of αGalCer was performed thereto. 48 hours later, the expression of CD25 in CLN was investigated with FACS.
# [2] = test system: OVA-specific antibody responses; test: OVA-specific antibody responses by ELISA after intranasal co-administration of OVA and αGalCer, C57BL/6 mice; assay type: in vivo
# Method: To investigate the activity of αGalCer as an adjuvant in mucosa, required amount of αGalCer and 100 μg of OVA or 100 μg of OVA alone was diluted with PBS, making 20 μl solution (10 μl/nostril), which was administered to C57BL/6 mice or Balb/c mice (Charles River Laboratories, Orient Co., Ltd., Korea) at 6-8 weeks three times at one-week intervals.
# Six to eight-weeks-old […] mice (Charles River Laboratories, Orient Co., Ltd., Korea) were immunized with 100 μg of OVA alone or together with the indicated amounts of αGalCer (0.125, 0.5, 2.0 μg), diluted with PBS and made 20 μl (10 μl/nostril) solution, three times at one-week intervals.
# A week after the final immunization, the mice were sacrificed. OVA-specific antibody responses were measured by ELISA. The nasal wash sample was obtained by washing the nasal passage with 100 μl of sterilized PBS (Yamamoto et al., J. Immunol., 161: 4115, 1998), and bronchoalveolar lavage fluid was also obtained by the same manner as described to prepare the lung wash (Chung et al., Immunobiology 206: 408, 2002).
# OVA-specific IgG titers in the nasal wash and the lung wash were measured (Chung et al., Immunobiology 206: 408, 2002). To measure IgA, IgG1 and IgG2a titers, two-fold serially diluted samples were used. To determine IgA titer, horseradish-peroxidase-conjugated goat anti-mouse IgA (SIGMA, USA), peroxidase substrate and TMB (SIGMA, USA) were used and 0.5 N—HCL was added thereto to terminate color development. Then, OD450 was measured. To determine IgG, IgG1 and IgG2a titers, alkaline phosphatase-conjugated goat anti-mouse IgG, IgG1 and IgG2a (Southern Biotech, USA) and alkaline phosphatase substrate, p-nitrophenyl phosphate (SIGMA), were used.
# To assess the immune bias towards Th1 or Th2 immune responses induced by α-GalCer nasal vaccine adjuvant indirectly, IgG isotypes in serum were determined and the ratios of IgG1 to IgG2a were calculated.
# [3] = test system: β-galactosidase-specific antibody response; test: β-galactosidase-specific antibody response after intranasal Ad-LacZ with αGalCer; assay type: in vivo; details: Balb/c mice; 10^6 pfu Ad-LacZ + 0.125 μg αGalCer intranasal, twice at two-week intervals; vs vehicle alone or Ad-LacZ alone
# Method: Balb/c mice were immunized with 10^6 pfu of replication-deficient live adenovirus harboring beta-galactosidase gene (Ad-LacZ) (Viromed, Korea) alone or together with 0.125 μg of αGalCer by the intranasal administration, two times at two-week intervals. One week after the final immunization, the nasal wash, the lung wash and serum were separated, by the same manner as described in Example 1, to measure β-galactosidase-specific antibody response. In addition, to measure CTL activity, spleen cells were stimulated by 2.5 μg/mL of β-galactosidase for 5 days and IFN-γ-producing CD8+ T cells were examined by intracellular cytokine staining according to the procedure as described in Example <4-2>.
# [4] = test system: immune cells from spleen and CLN; test: Immune cell proliferation, [3H]-thymidine incorporation of spleen and CLN cells cultured with inactivated PR8; assay type: in vivo; details: Balb/c mice; inactivated PR8 + αGalCer intranasal; cells cultured with inactivated PR8 for 3 days, [3H]-thymidine 18 hrs
# Method: To examine the role of αGalCer as an adjuvant of a killed virus, influenza virus A/PR/8/34 (PR8), which was inactivated with formalin, was used as an antigen to examine the anti-virus immune response. Balb/c mice were immunized with indicated amounts (1 μg, 10 μg) of inactivated PR8 alone or together with αGalCer by the intranasal administration twice at two-week intervals. Two weeks after the final immunization, the mice were sacrificed and following experiments were performed.
# Single cells separated from the spleen and CLN of the sacrificed mice were cultured with inactivated PR8 for 3 days and [^3H]-thymidine was added and further incubated for 18 hrs. As cells were being proliferated, the level of incorporated [^3H]-thymidine was measured by LSC.
# CD1d = molecular target: T1, CD1d (Mus musculus, UniProt P11609); test: Systemic IgG and in vivo CTL activity in wild type versus CD1d−/− C57BL/6 mice; details: CD1d−/− vs wild type C57BL/6 mice; OVA + αGalCer intranasal three times at one-week intervals
# T1 construct: host or cells: antigen presenting cells of living C57BL/6 mice (in vivo)
# T1 sequence (P11609 22-336): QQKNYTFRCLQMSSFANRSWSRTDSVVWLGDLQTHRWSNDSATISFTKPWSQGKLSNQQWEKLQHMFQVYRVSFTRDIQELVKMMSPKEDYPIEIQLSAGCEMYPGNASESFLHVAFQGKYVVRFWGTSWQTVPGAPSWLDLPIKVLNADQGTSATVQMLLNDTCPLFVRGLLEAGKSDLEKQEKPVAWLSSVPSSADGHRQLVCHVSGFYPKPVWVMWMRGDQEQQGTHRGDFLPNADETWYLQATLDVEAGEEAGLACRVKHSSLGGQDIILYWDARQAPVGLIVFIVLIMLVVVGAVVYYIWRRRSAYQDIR
# T1 sequence (P01887 21-119 partner): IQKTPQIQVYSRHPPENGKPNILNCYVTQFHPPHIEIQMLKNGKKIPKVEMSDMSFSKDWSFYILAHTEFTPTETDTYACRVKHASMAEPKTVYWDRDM
# Method: To investigate whether the immune responses induced by αGalCer were mediated by CD1d, NKT deficient (resulted from the lack of CD1d) CD1d−/− C57BL/6 mice (Charles River Lab., Orient Co. Ltd., Korea) were used for the experiment (Park et al., J. Exp. Med., 193: 893, 2001). On the first week of the final intranasal administration, systemic IgG level in serum and in vivo CTL activity were measured in both wild type and CD1d−/− C57BL/6 mice by the same manner as described in Example 1 and Example 3.
smiles,measurement,setting,value
"CCCCCCCCCCCCCCCCCCCCCCCCCC(=O)N[C@@H](CO[C@H]1O[C@H](CO)[C@H](O)[C@H](O)[C@H]1O)[C@H](O)[C@H](O)CCCCCCCCCCCCCC [αGalCer, alpha-galactosylceramide]",level of OT1 cells expressing CD25 in CLN,[1],higher
same,OVA-specific IgA responses in the nasal wash and the lung wash,"[2]; 2.0 μg αGalCer + 100 μg OVA intranasal, three times at one-week intervals, vs vehicle alone or OVA alone",significantly higher; also recorded: increased
same,OVA-specific Th2 type IgG1 and Th1 type IgG2a levels in serum,[2]; co-administration of αGalCer and OVA intranasal,remarkable increase; also recorded: increased
same,OVA-specific IgG in serum,"[2]; αGalCer 0.125, 0.5, 2.0 μg + 100 μg OVA intranasal, vs vehicle alone or OVA alone",higher levels
same,β-galactosidase-specific IgG antibody in serum,[3],higher levels
same,β-galactosidase-specific S-IgA antibody in the nasal wash and the lung wash,[3],higher levels
same,proliferation of immune cells from spleen and CLN,[4],significantly increased
same,CTL lytic activity in draining lymph node and systemic lymphoid organs of CD1d−/− mice,CD1d,inhibited
same,systemic IgG antibody response in CD1d−/− mice,CD1d,significantly inhibited
